Entries after “also recorded” stand apart in the source; their conditions may differ.
Columns and labels:
Type in all cases: physicochemical
[1] = Form III samples after drying (XRPD)
[2] = VT-XRPD of Form IV and exposure to ambient conditions
Method: 2) After heating to 75 and 120° C., pure Form VI was observed. […] Thus, Form IV is believed to be a hydrate. For XRPD analysis, PANalytical X'Pert^3 X-ray powder diffractometer was used.

[3] = Ball milling of Form I and Form IV: particle size (PSD)
Method: (§1) Therefore, ball milling of Form I and Form IV was performed to evaluate the form stability and particle size growth. The detailed procedure of ball milling was as follows. • 1. Suspend Form I and Form IV sample in 1% Poloxamer 188 water solution (50 mg/mL), separately. • 2. Add ˜12 mL suspension into a 50-mL tube which contained milling beads (the volume of milling beads is around 30 mL). After 12 mL suspension was added, the liquid surface just covered the beads. • 3. Roll the 50-mL tube (containing beads and suspension) at 5° C., RT and 60° C. with 30 rpm. • 4. Sample ˜0.8 mL suspension at 1, 2, 4, 24 h using 1-mL syringe. • 5. Test XRPD, PSD and PLM for the suspension.

[4] = Ball milling of Form I and Form IV: form stability by XRPD; conditions: for Form: ball milling in 1% Poloxamer 188 water solution (50 mg/mL)
Method: as §1
For XRPD analysis, PANalytical X'Pert^3 X-ray powder diffractometer was used.

[5] = Dynamic Vapor Sorption (DVS); conditions: 25° C./80% RH
Method: DVS was measured via a SMS (Surface Measurement Systems) DVS Intrinsic. The relative humidity at 25° C. were calibrated against deliquescence point of LiCl, Mg(NO3)2 and KCl.

[6] = Ball milling of Form I and Form IV: aggregation (PLM); conditions: after 24 h
Method: as §1
PLM images were captured using Axio Scope A1 microscope from Carl Zeiss German.

[7] = Storage of milled Form I aqueous suspension; conditions: milled to a very small particle size
Method: as §1

[8] = Slurry competition of Form I, III, IV and V at high water activity at RT (XRPD of wet cake); conditions: mixture of Form I
Method: The detailed procedure was as follows: • 1) Prepare saturated solution with Form I sample (803759-01-A) in three solvent systems. • 2) Add about 10 mg of each form into 1 mL corresponding saturated solution. • 3) Slurry and check the XRPD of the wet cake after one day and six days.

## CC1CC(C)CN(S(=O)(=O)c2ccc3c(c2)C(=NO)c2cc(S(=O)(=O)N4CC(C)CC(C)C4)ccc2C3=NO)C1 (stereo not shown) [Form III, (9E,10E)-2,7-bis((3,5-dimethylpiperidin-1-yl)sulfonyl)anthracene-9,10-dione dioxime]
[1]; after exposure to ambient condition at RT
  Form conversion: Form V
[1]; after vacuum drying at RT
  Form conversion: converted to Form IV

## CC1CC(C)CN(S(=O)(=O)c2ccc3c(c2)C(=NO)c2cc(S(=O)(=O)N4CC(C)CC(C)C4)ccc2C3=NO)C1 (stereo not shown) [Form VI, (9E,10E)-2,7-bis((3,5-dimethylpiperidin-1-yl)sulfonyl)anthracene-9,10-dione dioxime]
[2]; after exposure to ambient condition
  Form conversion: converted to Form IV quickly

## CC1CC(C)CN(S(=O)(=O)c2ccc3c(c2)C(=NO)c2cc(S(=O)(=O)N4CC(C)CC(C)C4)ccc2C3=NO)C1 (stereo not shown) [Form IV, (9E,10E)-2,7-bis((3,5-dimethylpiperidin-1-yl)sulfonyl)anthracene-9,10-dione dioxime]
[3]; 5° C., 1 h
  D 90: 33.7 μm
[3]; 5° C., 2 h
  D 90: 17.4 μm
[3]; 5° C., 4 h
  D 90: 5.8 μm
[3]; 5° C., 24 h
  D 90: 9.8 μm
[3]; 60° C., 1 h
  D 90: 3.9 μm
[3]; 60° C., 2 h
  D 90: 4.0 μm
[3]; 60° C., 4 h
  D 90: 2.0 μm
[3]; 60° C., 24 h
  D 90: 0.6 μm
[3]; RT, 1 h
  D 90: 6.6 μm
[3]; RT, 2 h
  D 90: 4.0 μm
[3]; RT, 4 h
  D 90: 3.4 μm
[3]; RT, 24 h
  D 90: 5.8 μm
[4]; 5° C., 1 h
  Form: Form IV
[4]; 5° C., 2 h
  Form: Form IV
[4]; 5° C., 4 h
  Form: Form IV
[4]; 5° C., 24 h
  Form: Form IV
[4]; 60° C., 1 h
  Form: Form IV
[4]; 60° C., 2 h
  Form: form conversion was observed; also recorded: Form I + IV
[4]; RT, 1 h
  Form: Form IV
[4]; RT, 2 h
  Form: Form IV
[4]; RT, 4 h
  Form: Form IV
[4]; RT, 24 h
  Form: form conversion was observed; also recorded: Amorphous
[4]; milled at elevated temperature (60° C.), time not stated
  Form conversion on ball milling: conversion to Form I; also recorded: converted to Form I
[5]
  water uptake: 9.1%
[2]; after cooling to 30° C.
  Form by VT-XRPD: Form VI was still observed
[2]; after heating to 75 and 120° C.
  Form by VT-XRPD: pure Form VI
[2]; at 30° C. under N2
  Form by VT-XRPD: partially converted to a new form
[6]; 5° C.
  Aggregation: Aggregation was observed
[6]; RT
  Aggregation: Aggregation was observed

## CC1CC(C)CN(S(=O)(=O)c2ccc3c(c2)C(=NO)c2cc(S(=O)(=O)N4CC(C)CC(C)C4)ccc2C3=NO)C1 (stereo not shown) [Form I, (9E,10E)-2,7-bis((3,5-dimethylpiperidin-1-yl)sulfonyl)anthracene-9,10-dione dioxime]
[7]
  Form conversion during storage: started converting to Form IV
  Particle size growth during storage: unacceptable particle size growth
[8]; IV and V slurried in ACN/H2O (1:1, v/v) at RT
  Form obtained from slurry competition: New form
[8]; IV and V slurried in ACN/H2O (1:3, v/v) at RT
  Form obtained from slurry competition: Form I
[8]; IV and V slurried in H2O at RT, XRPD after one day and six days
  Form obtained from slurry competition: Form IV
[3]; 5° C., 1 h, listed as Form 1
  D 90: 9.4 μm
[3]; 5° C., 2 h, listed as Form 1
  D 90: 9.0 μm
[3]; 5° C., 4 h, listed as Form 1
  D 90: 5.2 μm
[3]; 5° C., 24 h, listed as Form 1
  D 90: 5.6 μm
[3]; 60° C., 1 h, listed as Form 1
  D 90: 22.6 μm
[3]; 60° C., 2 h, listed as Form 1
  D 90: 6.6 μm
[3]; 60° C., 4 h, listed as Form 1
  D 90: 5.3 μm
[3]; 60° C., 24 h, listed as Form 1
  D 90: 2.0 μm
[3]; RT, 1 h, listed as Form 1
  D 90: 22.4 μm
[3]; RT, 2 h, listed as Form 1
  D 90: 21.4 μm
[3]; RT, 4 h, listed as Form 1
  D 90: 14.2 μm
[3]; RT, 24 h, listed as Form 1
  D 90: 2.8 μm
[4]; 5° C., 1 h, listed as Form 1
  Form: Form I
[4]; 5° C., 2 h, listed as Form 1
  Form: Form I
[4]; 5° C., 4 h, listed as Form 1
  Form: Form I
[4]; 5° C., 24 h, listed as Form 1
  Form: Form I
[4]; 60° C., 1 h, listed as Form 1
  Form: Form I
[4]; 60° C., 2 h, listed as Form 1
  Form: Form I
[4]; 60° C., 4 h
  Form: Form I
[4]; 60° C., 24 h
  Form: Form I
[4]; RT, 1 h, listed as Form 1
  Form: Form I
[4]; RT, 2 h, listed as Form 1
  Form: Form I
[4]; RT, 4 h, listed as Form 1
  Form: Form I
[4]; RT, 24 h, listed as Form 1
  Form: Form I

From patent US20250263391A1, “CRYSTALLINE FORM OF TEGAVIVINT, METHOD OF PREPARATION, AND USE THEREOF” (Iterion Therapeutics, Inc., priority 2020, published 2025)
